The values below come from US9382213B2, “Heterocyclic and cyclic analogs of propargyl-linked inhibitors of dihydrofolate reductase” (PROMILIAD BIOPHARMA INC., priority 2014, dated 2016).

Converted amounts (≈) assume the structure as drawn. Where two headings read alike, the source gives them in different places.

For series [1], the target named is T1, CgDHFR (Candida glabrata, UniProt Q6FPH0).
T1 construct: made in house
Put plainly: DHFR enzyme inhibition (NADPH consumption at 340 nm), C. glabrata DHFR. Format: biochemical. Particulars: 100 μM NADPH, 100 μM dihydrofolate, pH 7.0, 25° C., triplicate. The protocol:
(§1) Med. Chem., 17:4866-4872 (2009)). Crystallization of the protein with ligand also followed previously described procedures (Paulsen et al 2011). Data were collected at Brookhaven National Laboratory, beamline X4A (CaDHFR) or X4C (CgDHFR). Molecular replacement was used to determine all three structures. Initial phase information was obtained using Phaser; electron density and model building used Coot. Refinement was carried out with Refmac 5 as part of the CCP4 package. Procheck was used to assess model quality.
(§2) Enzyme inhibition was determined by monitoring the consumption of NADPH at 340 nm for one minute. Reactions were performed with 20 mM TES pH 7.0, 50 mM KCl, 10 mM 2-mercaptoethanol, 0.5 mM EDTA and 1 mg/mL bovine serum albumin. Saturating concentrations of cofactor (100 μM NADPH) and substrate (100 μM dihydrofolate) were used with a limiting concentration of enzyme. All assays were conducted in triplicate at 25° C.

Series [2] addresses T2, CaDHFR (Candida albicans, UniProt P22906).
T2 construct: made in house
T2 sequence (P22906 1-192): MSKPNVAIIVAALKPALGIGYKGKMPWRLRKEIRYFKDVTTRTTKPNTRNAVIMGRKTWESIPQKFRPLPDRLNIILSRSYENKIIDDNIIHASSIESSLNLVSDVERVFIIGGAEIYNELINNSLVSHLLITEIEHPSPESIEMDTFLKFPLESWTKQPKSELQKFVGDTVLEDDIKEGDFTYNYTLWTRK
Put plainly: DHFR enzyme inhibition (NADPH consumption at 340 nm), C. albicans DHFR. Type of series: biochemical. The protocol:
as §1, §2

The target of series [3] is T3, hDHFR (Homo sapiens, UniProt P00374).
T3 sequence (P00374 1-187): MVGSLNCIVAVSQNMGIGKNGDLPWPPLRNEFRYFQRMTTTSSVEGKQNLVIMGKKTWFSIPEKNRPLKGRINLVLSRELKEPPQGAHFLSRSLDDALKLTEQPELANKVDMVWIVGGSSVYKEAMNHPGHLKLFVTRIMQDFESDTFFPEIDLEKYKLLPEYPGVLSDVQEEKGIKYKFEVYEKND
Put plainly: DHFR enzyme inhibition (NADPH consumption at 340 nm), human DHFR. Type of series: biochemical. The method, then:
as §2

The subject of series [4] is C. glabrata (strain NCCLS84). Kind of series: Antifungal activity (MIC), XTT cell viability. Type of series: cell-based, Candida glabrata. Particulars: strain NCCLS84, GSB media. The protocol:
(§3) Stock cultures of C. albicans (strain SC5314) or C. glabrata (strain NCCLS84), thawed from storage in 50% glycerol at −80° C., were streaked on YM agar plates and grown at 37° C. for 48 hours. Isolated colonies from the plate were suspended in 100 mL of glucose-salt-biotin (GSB) media containing ammonia chloride (2 g), potassium phosphate (0.35 g), magnesium sulfate (0.24 g), sodium citrate (0.3 g), piperazine-N,N′-bis[2-ethanesulfonic acid] (3.4 g), biotin (40 mg) and glucose (20 g) in 1 L of water at a final pH of 7.1. […] An aliquot was removed from the shake flask culture, diluted to between 1×10^5 and 1×10^6 cells/mL in GSB media, and added to 96 well test plates (100 μL per well) containing test compounds dispensed in DMSO (1 μL). Amphotericin B and itraconazole were used as controls. C. albicans cell viability was determined by the addition of Alamar Blue (10 μL) to each well after a 24 hour incubation period. […] The XTT Cell Proliferation kit (ATCC) was used as an alternative. Tetrazolium dye, XTT, along with an electron activating reagent (50 μL) was added to 96 well plates and incubated for 24 hours at 37° C. Cell viability is indicated by a color change from a dark orange to a bright orange color that can be detected at […].
(Tetrazolium assays rely on reduction of a dye to a coloured formazan, in cell work by metabolically active cells.)

Series [5] concerns C. albicans (strain SC5314). Kind of series: Antifungal activity (MIC), Alamar Blue cell viability. Type of series: cell-based, Candida albicans. Particulars: strain SC5314, GSB media, Alamar Blue after 24 hour incubation; for MIC: Candida albicans, SC5314, 24 h. The protocol:
as §3

Series [6] has as its system Human MCF-10. Kind of series: Mammalian cell cytotoxicity. Type of series: cell-based.
A short description of series [7]: Kinetic solubility. Format: physicochemical. The following applies: water, 0.2% DMSO, room temperature 30 min, HPLC. The protocol:
Compounds were initially dissolved as […] dimethyl sulfoxide (DMSO) solutions and diluted in filtered water in the presence or absence of 200 μg/ml methylcellulose (METHOCEL A4M; Dow Corning, Midland, Mich.). Final concentration of DMSO of all samples is 0.2%. All samples were incubated at room temperature for 30 min and centrifuged for 10 min at 15,000 rpm. Supernatant of the samples were analyzed by reversed phase HPLC. The mobile phase consisted of 50% acetonitrile (ACN) and 50% potassium phosphate buffer (50 mM, pH 7.0), using an isocratic flow rate of 1.5 ml/min. Solubility was determined as the maximal concentration for which absorption is linearly related to the log of the concentration.

The mark [8] stands for this setting: 100 μM NADPH, 100 μM dihydrofolate, pH 7.0, 25° C., triplicate.
Setting [9] is: MCF10, Human MCF-10 cells, read-out: IC50 Human MCF-10.

T1 sequence (Q6FPH0 entry or part of it): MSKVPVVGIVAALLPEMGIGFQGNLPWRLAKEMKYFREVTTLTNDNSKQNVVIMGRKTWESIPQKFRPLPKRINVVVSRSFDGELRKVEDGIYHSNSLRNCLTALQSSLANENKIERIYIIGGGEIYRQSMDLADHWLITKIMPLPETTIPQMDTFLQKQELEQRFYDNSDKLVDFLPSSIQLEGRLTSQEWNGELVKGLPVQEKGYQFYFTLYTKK

For orientation: IC50 means the midpoint of a concentration-inhibition curve. As usually defined, the MIC is the lowest concentration found to suppress growth. What is called solubility is the dissolved amount per volume that the medium holds. High values mean a readily soluble substance, low ones a poorly soluble substance. As usually defined, the melting point is the temperature, or range, at which the solid turns liquid. For the compound `CCc1nc(N)nc(N)c1C#CC(C)c1cnc(-c2ccccc2)nc1` (centres unmarked) [Compound 48, 6-Ethyl-5-[3-(2-phenyl-pyrimidin-5-yl)-but-1-ynyl]-pyrimidine-2,4-diamine], the melting point is 161.3 to 162.8 °C. Half-maximal inhibition in series [1] (IC50) was put at 22 nM. In addition, inhibition in series [2] (setting [8]) was half-maximal at 37 nM (IC50). For the same compound, in series [3] (setting [8]), the IC50 was 180 nM. Moreover, the “MIC C. glabrata” value in series [4] came to 0.78 µg/mL (≈ 2.26 µM). In series [5], the MIC lay in the range of 0.2 to 0.78 µg/mL (≈ 0.581 to 2.26 µM) and the “MIC C. albicans” value came out at 0.19 µg/mL (≈ 0.552 µM). In addition, the IC50 in series [6] (setting [9]) amounted to 216000 nM. In series [7], this compound registered a solubility of 60 µg/mL (≈ 174 µM).

Take `CCc1nc(N)nc(N)c1C#CC(C)c1ccc(-c2ccc(C(=O)OC)cc2)cc1OC` (centres unmarked) [Compound 34, 4′-[3-(2,4-Diamino-6-ethyl-pyrimidin-5-yl)-1-methyl-prop-2-ynyl]-3′-methoxy-biphenyl-4-carboxylic acid methyl ester]: the melting point is 168.2 to 170.8 °C. The IC50 in series [2] (setting [8]) was 46 nM. In series [3] (setting [8]), this compound gave an IC50 of 49 nM. For the same compound, the IC50 in series [6] (setting [9]) amounted to 96000 nM.

The compound `CCc1nc(N)nc(N)c1C#CC(C)c1ccc(-c2ccc(O)cc2)cc1OC` (centres unmarked) [Compound 30, 4′-[3-(2,4-Diamino-6-ethyl-pyrimidin-5-yl)-1-methyl-prop-2-ynyl]-3′-methoxy-biphenyl-4-ol] showed a melting point of 188.1 to 189.3 °C. Besides, the IC50 in series [2] (setting [8]) came to 39 nM. In series [3] (setting [8]), half-maximal inhibition (IC50) required 136 nM. The IC50 in series [6] (Homo sapiens, MCF10, read-out: IC50 Human MCF-10) turned out to be 148000 nM.

`CCc1nc(N)nc(N)c1C#CC(C)c1ccc(-c2ccccc2)nc1` (centres unmarked) [Compound 46, 6-Ethyl-5-[3-(6-phenyl-pyridin-3-yl)-but-1-ynyl]-pyrimidine-2,4-diamine] displayed an IC50 in series [1] of 23 nM. The compound further displayed an IC50 in series [3] (setting [8]) of 688 nM. Moreover, in series [4], the “MIC C. glabrata” value was 0.78 µg/mL (≈ 2.27 µM). Also, in series [5], the MIC was in the range of 0.2 to 0.78 µg/mL (≈ 0.582 to 2.27 µM) and the “MIC C. albicans” value was 0.39 µg/mL (≈ 1.14 µM). Also, in series [7], the solubility is 20 µg/mL (≈ 58.2 µM).

The compound `CCc1nc(N)nc(N)c1C#CC(C)c1ccc(-c2ccc(N(C)C)cc2)cc1OC` (centres unmarked) [Compound 35, 5-[3-(4′-Dimethylamino-3-methoxy-biphenyl-4-yl)-but-1-ynyl]-6-ethyl-pyrimidine-2,4-diamine] came in with a melting point of 135.2 to 136.1 °C. The same compound gave a half-maximal inhibitory concentration (IC50) in series [2] (pH 7) of 64 nM. Moreover, 147 nM corresponded to half-maximal inhibition in series [3] (pH 7) (IC50).

Take `CCc1nc(N)nc(N)c1C#CC(C)c1ccc(-c2ccc(OC(N)=O)cc2)cc1OC` (centres unmarked) [Compound 33, Carbamic acid 4′-[3-(2,4-diamino-6-ethyl-pyrimidin-5-yl)-1-methyl-prop-2-ynyl]-3′-methoxy-biphenyl-4-yl ester]: the IC50 in series [2] (setting [8]) was 18 nM; in series [3] (setting [8]) it was 170 nM.

As for `CCc1nc(N)nc(N)c1C#CC(C)c1ccc(-c2ccc(C)cc2)nc1` (centres unmarked) [Compound 47, 6-Ethyl-5-[3-(6-p-tolyl-pyridin-3-yl)-but-1-ynyl]-pyrimidine-2,4-diamine], the melting point lay within 144 to 146.1 °C. Inhibition in series [1] was half-maximal at 27 nM (IC50). For the same compound, inhibition in series [2] (pH 7) was half-maximal at 49 nM (IC50). This compound also displayed an IC50 in series [3] (setting [8]) of 625 nM. Also, the MIC in series [4] (Nakaseomyces glabratus) was 0.2 to 0.78 µg/mL (≈ 0.56 to 2.18 µM). Further, the “MIC C. glabrata” value in series [4] was determined as 0.2 µg/mL (≈ 0.56 µM). Moreover, in series [5], the MIC lay within 0.2 to 0.78 µg/mL (≈ 0.56 to 2.18 µM) and the “MIC C. albicans” value is 0.39 µg/mL (≈ 1.09 µM). The compound also displayed a solubility in series [7] of 15 µg/mL (≈ 42 µM).

`CCc1nc(N)nc(N)c1C#CC(C)c1ccc(-c2ccc(C#N)cc2)cc1OC` (centres unmarked) [Compound 32, 4′-[3-(2,4-Diamino-6-ethyl-pyrimidin-5-yl)-1-methyl-prop-2-ynyl]-3′-methoxy-biphenyl-4-carbonitrile] displayed a melting point of 130.9 to 133.1 °C. For the same compound, the IC50 in series [2] (setting [8]) turned out to be 50 nM. This compound yielded an IC50 in series [3] (setting [8]) of 477 nM. The IC50 in series [6] (setting [9]) is 50000 nM.
